Measurements reported in US12083100B1, “Antiparasitic isoxazoline compounds, long-acting injectable formulations comprising them, methods and uses thereof” (BOEHRINGER INGELHEIM ANIMAL HEALTH USA INC., priority 2016, dated 2024).

System: Rhipicephalus microplus ticks
Assay: Efficacy of injectable formulation against Rhipicephalus (Boophilus) microplus ticks on cattle
Type: in vivo
Settings: for Average % Efficacy (Tick Count): vs untreated control; for efficacy and duration of activity against Rhipicephalus microplus compared with other isoxazoline compounds / speed of onset of efficacy against Rhipicephalus microplus compared with other isoxazoline compounds: injectable composition, compared with afoxolaner, (If) or (S)-If
Description: The efficacy of long-acting injectable compositions of the invention comprising the compounds of formula (Ie) and (S)-Ie, against Rhipicephalus microplus ticks on cattle was determined against an untreated control group. The efficacy of compositions comprising the compounds (Ie) and (S)-e were also compared with injectable compositions comprising afoxolaner (formula Ia, 4-[5-[3-chloro-5-(trifluoromethyl)phenyl]-4,5-dihydro-5-(trifluoromethyl)-3-isoxazolyl]-N-[2-oxo-2-[(2,2,2-trifluoroethyl)amino]ethyl]-1-naphthalanecarboxamide), and comparative compounds of formulae (If) and (S)-If shown below.
Each compound was formulated in an injectable composition at a concentration of 10% (w/v) in a carrier comprising 8% (w/v) ethanol and Q.S. with polyethylene glycol 400. The racemic compounds afoxolaner and (If) were dosed at 1.0 mg/kg body weight and the (S)-enantiomers ((S)-Ie and (S)-If) were dosed at 0.5 mg/kg body weight. Six healthy head of cattle were used in each study group. Cattle in Group 1 were untreated (control). Cattle in Groups 2, 3, 4, 5 and 6 were treated on Day 0 subcutaneously with injectable compositions comprising the compounds of formula Ie, (S)-If, (S)-Ie, afoxolaner (Ia) and (If), respectively. Several weeks before treatment, cattle were infested three times a week with approximately 2500 Rhipicephalus microplus larvae to establish ongoing infestations. Each animal was challenged by infestation with approximately 5000 R. microplus larvae on Days 7 and 21 and every 14 days thereafter. Ticks dropping from each animal in the previous 24 hours were collected daily and counted from Day 1 until the end of the study.

[1] = Day 5, 1.0 mg/kg subcutaneous on Day 0 (racemic compounds)
[2] = Day 10, 1.0 mg/kg subcutaneous on Day 0 (racemic compounds)
[3] = Day 20, 1.0 mg/kg subcutaneous on Day 0 (racemic compounds)
[4] = Day 30, 1.0 mg/kg subcutaneous on Day 0 (racemic compounds)
[5] = Day 40, 1.0 mg/kg subcutaneous on Day 0 (racemic compounds)
[6] = Day 49, 1.0 mg/kg subcutaneous on Day 0 (racemic compounds)
[7] = Day 55, 1.0 mg/kg subcutaneous on Day 0 (racemic compounds)
[8] = Day 60, 1.0 mg/kg subcutaneous on Day 0 (racemic compounds)
[9] = Day 65, 1.0 mg/kg subcutaneous on Day 0 (racemic compounds)
[10] = Day 70, 1.0 mg/kg subcutaneous on Day 0 (racemic compounds)
[11] = Day 75, 1.0 mg/kg subcutaneous on Day 0 (racemic compounds)
[12] = listed as formula (Ic) wherein X^1 is chloro, X^2 is fluoro and X^3 is CF3
[13] = listed as formula (Id) in which Y is Y-2, Q is —C(O)NHCH2C(O)NHCH2CF3, X^1 is fluoro and X

Compound	Average % Efficacy (Tick Count) [1] [%]	Average % Efficacy (Tick Count) [2] [%]	Average % Efficacy (Tick Count) [3] [%]	Average % Efficacy (Tick Count) [4] [%]	Average % Efficacy (Tick Count) [5] [%]	Average % Efficacy (Tick Count) [6] [%]	Average % Efficacy (Tick Count) [7] [%]	Average % Efficacy (Tick Count) [8] [%]	Average % Efficacy (Tick Count) [9] [%]	Average % Efficacy (Tick Count) [10] [%]	Average % Efficacy (Tick Count) [11] [%]	also measured
O=C(CNC(=O)c1ccc(C2=NOC(c3cc(Cl)cc(C(F)(F)F)c3)(C(F)(F)F)C2)c2ccccc12)NCC(F)(F)F (racemic) [afoxolaner, 4-[5-[3-chloro-5-(trifluoromethyl)phenyl]-4,5-dihydro-5-(trifluoromethyl)-3-isoxazolyl]-N-[2-oxo-2-[(2,2,2-trifluoroethyl)amino]ethyl]-1-naphthalanecarboxamide, reference compound]	38	48	77	99	100	94	73	71	48	3	0	–
O=C(CNC(=O)c1ccc(C2=NOC(c3cc(Cl)c(F)c(C(F)(F)F)c3)(C(F)(F)F)C2)c2ccccc12)NCC(F)(F)F (racemic) [Ie]	69	100	100	100	100	100	100	100	100	100	100	Average % Efficacy (Tick Count) (Day 80, 1.0 mg/kg subcutaneous on Day 0 (racemic compounds)): 100%; Average % Efficacy (Tick Count) (Day 85, 1.0 mg/kg subcutaneous on Day 0 (racemic compounds)): 100%; Average % Efficacy (Tick Count) (Day 88, 1.0 mg/kg subcutaneous on Day 0 (racemic compounds)): 100%; Average % Efficacy (Tick Count) (Day 95, 1.0 mg/kg subcutaneous on Day 0 (racemic compounds)): 100%; Average % Efficacy (Tick Count) (Day 100, 1.0 mg/kg subcutaneous on Day 0 (racemic compounds)): 100%; Average % Efficacy (Tick Count) (Day 105, 1.0 mg/kg subcutaneous on Day 0 (racemic compounds)): 93%; Average % Efficacy (Tick Count) (Day 110, 1.0 mg/kg subcutaneous on Day 0 (racemic compounds)): 82%; efficacy and duration of activity against Rhipicephalus microplus compared with other isoxazoline compounds: surprising and unexpected efficacy; speed of onset of efficacy against Rhipicephalus microplus compared with other isoxazoline compounds (listed as Je): faster-acting; efficacy and duration of activity against Rhipicephalus microplus compared with other isoxazoline compounds [12]: surprisingly long-lasting and excellent efficacy; speed of onset of efficacy against Rhipicephalus microplus compared with other isoxazoline compounds [12]: quick onset; efficacy and duration of activity against Rhipicephalus microplus compared with other isoxazoline compounds [13]: surprisingly improved duration of activity; speed of onset of efficacy against Rhipicephalus microplus compared with other isoxazoline compounds [13]: surprisingly improved fast-acting efficacy
O=C(CNC(=O)c1ccc(C2=NO[C@@](c3cc(Cl)cc(Cl)c3)(C(F)(F)F)C2)c2ccccc12)NCC(F)(F)F [(S)-If, reference compound]	–	–	–	–	–	–	–	–	–	–	–	Average % Efficacy (Tick Count) (Day 5, 0.5 mg/kg subcutaneous on Day 0 ((S)-enantiomers)): 39%; Average % Efficacy (Tick Count) (Day 10, 0.5 mg/kg subcutaneous on Day 0 ((S)-enantiomers)): 27%; Average % Efficacy (Tick Count) (Day 20, 0.5 mg/kg subcutaneous on Day 0 ((S)-enantiomers)): 33%; Average % Efficacy (Tick Count) (Day 30, 0.5 mg/kg subcutaneous on Day 0 ((S)-enantiomers)): 86%; Average % Efficacy (Tick Count) (Day 40, 0.5 mg/kg subcutaneous on Day 0 ((S)-enantiomers)): 100%; Average % Efficacy (Tick Count) (Day 49, 0.5 mg/kg subcutaneous on Day 0 ((S)-enantiomers)): 36%; Average % Efficacy (Tick Count) (Day 55, 0.5 mg/kg subcutaneous on Day 0 ((S)-enantiomers)): 0%
O=C(CNC(=O)c1ccc(C2=NOC(c3cc(Cl)cc(Cl)c3)(C(F)(F)F)C2)c2ccccc12)NCC(F)(F)F (stereo not shown) [If, reference compound]	70	62	57	84	100	70	14	–	–	–	–	–
